Laboratory results reported in publication PMC8373216, “Development and Preclinical Evaluation of New Inhaled Lipoglycopeptides for the Treatment of Persistent Pulmonary Methicillin-Resistant Staphylococcus aureus Infections” (Antimicrobial Agents and Chemotherapy, 2021).
Converted amounts (≈) assume the structure as drawn. Read-outs that look alike come from different tables or passages of the source.

Columns and labels:
S. aureus = assay: Expanded panel broth microdilution MIC/MBC; settings: for MIC: Staphylococcus aureus
Streptococcus oralis = assay: Expanded panel broth microdilution MIC; type: cell-based
[1] = system: Staphylococcus epidermidis; assay: Expanded panel broth microdilution MIC/MBC; type: cell-based; settings: for MIC: Staphylococcus epidermidis
Enterococcus faecalis = assay: Expanded panel broth microdilution MIC/MBC; type: cell-based
Streptococcus pyogenes = assay: Expanded panel broth microdilution MIC/MBC; type: cell-based
[2] = system: MRSA (ATCC BAA 1556; USA300); assay: Acute pulmonary MRSA infection in neutropenic rats, nebulized nose-only inhalation; type: in vivo, Staphylococcus aureus; settings: inhaled at 24 and 32 h postinfection, lungs at 48 h, 49.8 mg/kg delivered
Method: Rats were rendered neutropenic with intraperitoneal (i.p.) cyclophosphamide on day −4 (150 mg/kg) and day −1 (100 mg/kg) relative to the challenge. On day 0 at 0 h, rats were challenged with MRSA via intranasal instillation at a target titer of 8.0 to 8.3 log10 CFU. At 24 and 32 h postchallenge, rats were loaded into a 12-port inhalation dosing tower, where they received nebulized drug or vehicle control treatments by nose-only inhalation. Animals were euthanized at 48 h postinfection for enumeration of lung MRSA titer. MRSA lung titer of test article treatments versus control is plotted for three separate experiments. […] Statistics are based on the Kolmogorov-Smirnov test for drug treatment versus control (RV94, P = 0.01). LOD = 2.1 log10 CFU/lungset.
Male Sprague Dawley rats (Envigo, Indianapolis, IN) weighing between 225 and 250 g were used in these studies. Rats were housed and acclimated to the study facility as described in the PK methods section. Rats were rendered neutropenic through a series of intraperitoneal cyclophosphamide (Sigma-Aldrich) injections on day −4 (150 mg/kg) and day −1 (100 mg/kg) relative to the challenge. On day 0 at 0 h, rats were challenged with MRSA ATCC BAA 1556 via intranasal instillation at a target titer of 8.0 to 8.3 log10 CFU using optical density and back-counting inoculum CFU. To prepare the inoculum, a frozen aliquot of the organism stored at −80°C was thawed, transferred into TSB, and incubated at 37°C while shaking for 16 h. Cultures were then centrifuged at 2,000 × g for 5 min, and the resulting pellet was resuspended in PBS and equilibrated. For the challenge procedure, rats were first anesthetized through use of 2 to 5% isoflurane in 100% oxygen, then restrained with a scruff grip and a total of 200 μl of inoculum was quickly introduced to one nare. The rat was held in a vertical position until the challenge was fully inhaled. Rats were monitored following challenge to ensure that normal respiration was achieved and then returned to their cage. […] At necropsy, whole lungs were aseptically removed and lung weights were recorded. […]

[3] = system: Streptococcus constellatus; assay: Expanded panel broth microdilution MIC; type: cell-based
Streptococcus pneumoniae = assay: Expanded panel broth microdilution MIC/MBC; type: cell-based
[4] = system: Peptostreptococcus anaerobius; assay: Expanded panel broth microdilution MIC; type: cell-based
Staphylococcus hominis = assay: Expanded panel broth microdilution MIC; type: cell-based
[5] = system: Staphylococcus haemolyticus; assay: Expanded panel broth microdilution MIC; type: cell-based
Clostridioides difficile = assay: Expanded panel broth microdilution MIC; type: cell-based
Streptococcus mitis = assay: Expanded panel broth microdilution MIC/MBC; type: cell-based; settings: for MIC: Streptococcus mitis

CN[C@H](CC(C)C)C(=O)N[C@H]1C(=O)N[C@@H](CC(N)=O)C(=O)N[C@H]2C(=O)N[C@H]3C(=O)N[C@H](C(=O)N[C@H](C(=O)O)c4cc(O)cc(O)c4-c4cc3ccc4O)[C@H](O)c3ccc(c(Cl)c3)Oc3cc2cc(c3O[C@@H]2O[C@H](CO)[C@@H](O)[C@H](O)[C@H]2O[C@H]2C[C@](C)(N)[C@H](O)[C@H](C)O2)Oc2ccc(cc2Cl)[C@H]1O [Vancomycin, vancomycin]
MIC:MBC (S. aureus; S. aureus MRSA, MBC median of n = 5): 1 | MIC:MBC (S. aureus; S. aureus MSSA, MBC on one organism): 1 | MIC:MBC (S. aureus; S. aureus VISA, MBC median of n = 2): 4 | MIC (median) (S. aureus; S. aureus VRSA, 12 isolates (JMI Laboratories)): >64 µg/mL | MIC:MBC (S. aureus; S. aureus hVISA, MBC on one organism): 1 | MIC (S. aureus; ATCC13709 / MSSA, S. aureus ATCC 13709, MSSA): 1 µg/mL (≈ 0.69 µM) | MIC (S. aureus; ATCC29213 / MSSA, S. aureus ATCC 29213, MSSA): 1 µg/mL (≈ 0.69 µM) | MIC (S. aureus; ATCC43300 / MRSA, S. aureus ATCC 43300, MRSA): 1 µg/mL (≈ 0.69 µM) | MIC (S. aureus; ATCCBAA1556|MRSA|USA300, S. aureus ATCC BAA-1556, MRSA, USA300 (expanded panel)): 0.5 µg/mL (≈ 0.345 µM) | MIC (S. aureus; ATCCBAA1756|MRSA|NRS384|USA300, S. aureus NRS 384, ATCC BAA-1756, MRSA, USA300): 0.5 µg/mL (≈ 0.345 µM) | MIC (S. aureus; MRSA / NRS123 / USA400, S. aureus NRS123, MRSA, USA400): 0.5 µg/mL (≈ 0.345 µM) | MIC (S. aureus; MRSA / NRS725 / USA300, S. aureus NRS725, MRSA, USA300): 0.5 µg/mL (≈ 0.345 µM) | MIC (S. aureus; MRSA / USA300, S. aureus MMX 3982, MRSA, USA300): 0.5 µg/mL (≈ 0.345 µM) | MIC (S. aureus; MRSA, S. aureus MMX 7899, MRSA): 0.5 µg/mL (≈ 0.345 µM) | MIC (S. aureus; MRSA, S. aureus MMX 7900, MRSA): 0.5 µg/mL (≈ 0.345 µM) | MIC (S. aureus; MRSA, S. aureus MMX 7901, MRSA): 0.5 µg/mL (≈ 0.345 µM) | MIC (S. aureus; MRSA, S. aureus MMX 7902, MRSA): 0.5 µg/mL (≈ 0.345 µM) | MIC (S. aureus; MRSA, S. aureus MMX 7903, MRSA): 0.5 µg/mL (≈ 0.345 µM) | MIC (S. aureus; MRSA, read-out: MIC (median), S. aureus MRSA, 12 isolates): 0.5 µg/mL (≈ 0.345 µM) | MIC (S. aureus; MSSA, S. aureus MMX 7907, MSSA): 0.5 µg/mL (≈ 0.345 µM) | MIC (S. aureus; MSSA, S. aureus MMX 7908, MSSA): 0.5 µg/mL (≈ 0.345 µM) | MIC (S. aureus; MSSA, read-out: MIC (median), S. aureus MSSA, 4 isolates): 0.75 µg/mL (≈ 0.518 µM) | MIC (S. aureus; NRS1 / VISA, S. aureus NRS1, VISA, Mu50): 4 µg/mL (≈ 2.76 µM) | MIC (S. aureus; NRS2, S. aureus NRS2, hVISA;Mu3): 1 µg/mL (≈ 0.69 µM) | MIC (S. aureus; NRS4 / VISA, S. aureus NRS4, VISA): 4 µg/mL (≈ 2.76 µM) | MIC (S. aureus; NRS13 / VISA, S. aureus NRS13, VISA): 2 µg/mL (≈ 1.38 µM) | MIC (S. aureus; NRS22 / VISA, S. aureus NRS22, VISA): 4 µg/mL (≈ 2.76 µM) | MIC (S. aureus; NRS23, S. aureus NRS23, hVISA): 2 µg/mL (≈ 1.38 µM) | MIC (S. aureus; NRS52 / VISA, S. aureus NRS52, VISA): 1 µg/mL (≈ 0.69 µM) | MIC (S. aureus; VISA, read-out: MIC (median), S. aureus VISA, 5 isolates): 4 µg/mL (≈ 2.76 µM) | MIC (S. aureus; VRSA, read-out: MIC (median), S. aureus VRSA, 12 isolates (JMI Laboratories)): > 64 µg/mL | MIC (S. aureus; read-out: MIC (median), S. aureus hVISA, 2 isolates): 1.5 µg/mL (≈ 1.04 µM) | MIC (Streptococcus oralis; S. oralis MGS, 1 isolate): 0.5 µg/mL (≈ 0.345 µM) | MIC (Streptococcus oralis; Streptococcus oralis): 0.5 µg/mL (≈ 0.345 µM) | MIC:MBC ([1]; S. epidermidis MRSE, MBC on one organism): 1 | MIC ([1]; ATCC49134, S. epidermidis ATCC 49134, MSSE): 0.5 µg/mL (≈ 0.345 µM) | MIC ([1]; MRSE, S. epidermidis MMX 762, MRSE): 1 µg/mL (≈ 0.69 µM) | MIC ([1]; MRSE, S. epidermidis MMX 5145, MRSE): 1 µg/mL (≈ 0.69 µM) | MIC ([1]; MRSE, read-out: MIC (median), S. epidermidis MRSE, 2 isolates): 1 µg/mL (≈ 0.69 µM) | MIC ([1]; S. epidermidis MSSE, 1 isolate): 0.5 µg/mL (≈ 0.345 µM) | MIC:MBC (Enterococcus faecalis; E. faecalis VSE, MBC on one organism): >8 | MIC (Enterococcus faecalis; E. faecalis VanA VRE, 1 isolate): 128 µg/mL (≈ 88.3 µM) | MIC (Enterococcus faecalis; Enterococcus faecalis): 1 µg/mL (≈ 0.69 µM) | MIC (Enterococcus faecalis; Enterococcus faecalis, ATCC29212): 2 µg/mL (≈ 1.38 µM) | MIC (Enterococcus faecalis; Enterococcus faecalis, VRE): 128 µg/mL (≈ 88.3 µM) | MIC (Enterococcus faecalis; Enterococcus faecalis, read-out: MIC (median)): 1.5 µg/mL (≈ 1.04 µM) | MIC (Streptococcus pyogenes; S. pyogenes MMX 946, ermR): 0.25 µg/mL (≈ 0.173 µM) | MIC:MBC (Streptococcus pyogenes; S. pyogenes ermR): 1 | MIC (Streptococcus pyogenes; Streptococcus pyogenes): 0.25 µg/mL (≈ 0.173 µM) | MIC (Streptococcus pyogenes; Streptococcus pyogenes, ATCC19615): 0.25 µg/mL (≈ 0.173 µM) | MIC (Streptococcus pyogenes; Streptococcus pyogenes, read-out: MIC (median)): 0.25 µg/mL (≈ 0.173 µM) | Average increase in lung MRSA titer versus inhaled vehicle control [2]: 0.1 log10 CFU | MIC ([3]; S. constellatus AGS, 1 isolate): 0.25 µg/mL (≈ 0.173 µM) | MIC ([3]; Streptococcus constellatus): 0.25 µg/mL (≈ 0.173 µM) | MIC:MBC (Streptococcus pneumoniae; S. pneumoniae PISP, MBC on one organism): 8 | MIC (Streptococcus pneumoniae; S. pneumoniae PRSP, 1 isolate): 0.25 µg/mL (≈ 0.173 µM) | MIC (Streptococcus pneumoniae; Streptococcus pneumoniae): 0.12 µg/mL (≈ 0.0828 µM) | MIC (Streptococcus pneumoniae; Streptococcus pneumoniae, ATCC49619): 1 µg/mL (≈ 0.69 µM) | MIC (Streptococcus pneumoniae; Streptococcus pneumoniae, PRSP): 0.25 µg/mL (≈ 0.173 µM) | MIC (Streptococcus pneumoniae; Streptococcus pneumoniae, read-out: MIC (median)): 0.6 µg/mL (≈ 0.414 µM) | MIC [4]: 0.12 µg/mL (≈ 0.0828 µM) | MIC ([4]; ATCC27337): 0.12 µg/mL (≈ 0.0828 µM) | MIC (Staphylococcus hominis): 0.5 µg/mL (≈ 0.345 µM) | MIC (Staphylococcus hominis; ATCC27844): 0.5 µg/mL (≈ 0.345 µM) | MIC [5]: 1 µg/mL (≈ 0.69 µM) | MIC ([5]; ATCC29970): 1 µg/mL (≈ 0.69 µM) | MIC (Clostridioides difficile; ATCCBAA1805, C. difficile ATCC BAA-1805, ribo 027): 0.5 µg/mL (≈ 0.345 µM) | MIC (Clostridioides difficile; ATCCBAA1870, C. difficile ATCC BAA-1870, NAP1;ribo 027): 1 µg/mL (≈ 0.69 µM) | MIC (Clostridioides difficile; C. difficile ATTC 700057, toxAB-): 0.25 µg/mL (≈ 0.173 µM) | MIC (Clostridioides difficile; C. difficile NAP1;ribo 027, 1 isolate): 1 µg/mL (≈ 0.69 µM) | MIC (Clostridioides difficile; C. difficile ribo 027, 1 isolate): 0.5 µg/mL (≈ 0.345 µM) | MIC (Clostridioides difficile; C. difficile toxAB-, 1 isolate): 0.25 µg/mL (≈ 0.173 µM) | MIC:MBC (Streptococcus mitis; S. mitis MGS, MBC on one organism): 1 | MIC (Streptococcus mitis): 0.25 µg/mL (≈ 0.173 µM) | MIC (Streptococcus mitis; ATCC49456): 0.25 µg/mL (≈ 0.173 µM) | MIC (Streptococcus mitis; read-out: MIC (median)): 0.25 µg/mL (≈ 0.173 µM)
